In patent US8143421B2, “Broadspectrum substituted benzimidazole sulfonamide HIV protease inhibitors” (priority 2002, dated 2012):
Like-named read-outs stand apart in the source and are kept apart here.

Tests used:
[1] = tested on: mutant F; assay: Antiviral spectrum, fold resistance towards mutant F; type: cell-based; conditions: FR=IC50(mutant strain)/IC50(HIV-1 strain LAI)
Procedure: (§1) Because of the increasing emergence of drug resistant HIV strains, the present compounds were tested for their potency against clinically isolated HIV strains harboring several mutations. These mutations are associated with resistance to protease inhibitors and result in viruses that show various degrees of phenotypic cross-resistance to the currently commercially available drugs such as for instance saquinavir, ritonavir, nelfinavir, indinavir and amprenavir. The viral strains R13025, R13027, R13028, R13029, R13034, R13080, T13127 and R13363 contained mutations as indicated below in Table 3.

[2] = in vitro; conditions: human
[3] = tested on: mutant B; assay: Antiviral spectrum, fold resistance towards mutant B; type: cell-based; conditions: FR=IC50(mutant strain)/IC50(HIV-1 strain LAI)
Procedure: as §1

[4] = tested on: HIV-1 strain LAI; assay: Cellular anti-HIV assay, MT4 cells, MTT readout, wild type HIV-1 strain LAI; type: cell-based
Procedure: The compounds of the present invention were examined for anti-viral activity in a cellular assay. […] The cellular assay was performed according to the following procedure.

[5] = tested on: mutant C; assay: Antiviral spectrum, fold resistance towards mutant C; type: cell-based; conditions: FR=IC50(mutant strain)/IC50(HIV-1 strain LAI)
Procedure: as §1

[6] = tested on: mutant D; assay: Antiviral spectrum, fold resistance towards mutant D; type: cell-based; conditions: FR=IC50(mutant strain)/IC50(HIV-1 strain LAI)
Procedure: as §1

[7] = tested on: mutant G; assay: Antiviral spectrum, fold resistance towards mutant G; type: cell-based; conditions: FR=IC50(mutant strain)/IC50(HIV-1 strain LAI)
Procedure: as §1

[8] = tested on: mutant H; assay: Antiviral spectrum, fold resistance towards mutant H; type: cell-based; conditions: FR=IC50(mutant strain)/IC50(HIV-1 strain LAI)
Procedure: as §1

[9] = tested on: mutant A; type: cell-based; conditions: FR=IC50(mutant strain)/IC50(HIV-1 strain LAI)
[10] = tested on: mutant E; type: cell-based; conditions: FR=IC50(mutant strain)/IC50(HIV-1 strain LAI)
[11] = tested on: mock-infected MT4 cells; assay: Toxicity on mock-infected MT4 cells (CC50)
[12] = Oral availability in the rat, serum concentration; type: in vivo
Procedure: The compounds are formulated as a 20 mg/ml solution or suspension in DMSO, PEG400 or cyclodextin 40% in water. For most experiments in the rat (male and female rats), three dosing groups are formed: 1/single intraperitoneal (IP) dose at 20 mg/kg using DMSO formulation; 2/single oral dose at 20 mg/kg using […] oral dose at 20 mg/kg using PEG400 formulation. Blood is sampled at regular time intervals after dosing and drug concentrations in the serum are determined using a LC-MS bioanalytical method. Serum concentrations are expressed in […]. Serum concentration at 30 minutes (30′) and at 3 hours (180′) can be determined as these values reflect the extent of absorption (30′) and the speed of elimination (180′). The rat serum concentration at 30 min and 180 min following IP administration of 20 mg/kg of compound 18 are 2012 ng/ml and 190 ng/ml respectively. The rat serum concentration at 30 min and 180 min following oral administration of 20 mg/kg as a DMSO formulation of compound 18 are 148 ng/ml and 44 ng/ml respectively; whereas in PEG400 said concentrations are respectively 475 ng/ml and 63 ng/ml.

[13] = Human immunodeficiency virus 1, 120 h, Table 1, MT4 cells, five days, HIV-1 strain LAI, read-out: pIC50 (LAI) (converted)
[14] = Human immunodeficiency virus 1, MT4, Table 4, wild type HIV-LAI strain, read-out: WT (pIC50 against wild type HIV-LAI strain) (converted)
[15] = pCC50 value as determined with mock transfected cells
[16] = Table 1, MT4 cells, five days, HIV-1 strain LAI
[17] = Table 4, wild type HIV-LAI strain

Molecule	FR towards mutant F [1]	CC50 at 5 days [2] [nM]	FR towards mutant B [3]	IC50 [4, 13] [nM]	IC50 [4, 14] [nM]	FR towards mutant C [5]	FR towards mutant D [6]	FR towards mutant G [7]	FR towards mutant H [8]	FR value towards mutant A [9]	FR towards mutant E [10]	pIC50 (LAI) [4, 16]	WT (pIC50 against wild type HIV-LAI strain) [4, 17]	also measured
CC(C)CN(C[C@@H](O)[C@H](Cc1ccccc1)NC(=O)O[C@H]1CO[C@H]2OCC[C@H]21)S(=O)(=O)c1ccc2ncn(Cc3ccccc3)c2c1 [Compound 1, [(1S,2R)-2-hydroxy-3-[(2-methylpropyl)[[1-(phenylmethyl)benzimidazol-6-yl]sulfonyl]amino]-1-(phenylmethyl)-propyl]carbamic acid, [(3R,3aS,6aR)-hexahydrofuro[2,3-b]furan-3-yl]ester]	40	63100	3.1	0.794	0.794	1.1	1.5	275	33	9.3	1.6			
Cc1nc2ccc(S(=O)(=O)N(CC(C)C)C[C@@H](O)[C@H](Cc3ccccc3)NC(=O)O[C@H]3CO[C@H]4OCC[C@H]43)cc2n1Cc1ccccc1 [Compound 2, [(1S,2R)-2-hydroxy-3-[[[[2-methyl-1-(phenylmethyl)]benzimidazol-6-yl]sulfonyl]-(2-methylpropyl)amino]-1-(phenylmethyl)propyl]carbamic acid, [(3R,3aS,6aR)-hexahydrofuro[2,3-b]furan-3-yl]ester]	162	63100	6.3	1	1	1.9	6.3		89	32	2.9			
CC(C)CN(CC(O)C(Cc1ccccc1)NC(=O)OC1COC2OCCC12)S(=O)(=O)c1ccc2ncn(CCc3ccccc3)c2c1 (stereo not drawn) [Compound 5]	78		1.9			0.9	1.9	110	49		3.2	8.7	8.7	Tox (pCC50) [11, 15]: 4.1
COC(=O)Nc1nc2ccc(S(=O)(=O)N(CC(C)C)C[C@@H](O)[C@H](Cc3ccccc3)NC(=O)COc3c(C)cccc3C)cc2[nH]1 [Compound 8, [(1S,2R)-2-hydroxy-3-[[[2-[(methoxycarbonyl)amino]-1H-benzimidazol-5-yl]sulfonyl](2-methylpropyl)amino]-1-(phenylmethyl)propyl]-(2,6-dimethylphenoxy)acetamide]	16.2	> 100000	2.0	3.16	3.16	1.4	1.9	89		2.1	2.3			
CC(=O)Nc1nc2ccc(S(=O)(=O)N(CC(C)C)C[C@@H](O)[C@H](Cc3ccccc3)NC(=O)COc3c(C)cccc3C)cc2[nH]1 [Compound 9, [(1S,2R)-3-[[[2-(acetylamino)benzimidazol-5-yl]sulfonyl](2-methyl-propyl)amino]-2-hydroxy-1-(phenylmethyl)propyl]-(2,6-dimethylphenoxy)acetamide]	14	> 100000	1.3	3.98	3.98	4.4	2.4	107		4.3	2.8			
CC(C)CN(CC(O)C(Cc1ccccc1)NC(=O)OC1COC2OCCC12)S(=O)(=O)c1ccc2ncn(C)c2c1 (stereo not drawn) [Compound 18]														rat serum concentration at 30 min ([12]; IP administration of 20 mg/kg, 30 min): 2012 ng/mL; rat serum concentration at 180 min ([12]; IP administration of 20 mg/kg, 180 min): 190 ng/mL; rat serum concentration at 30 min ([12]; oral administration of 20 mg/kg as a DMSO formulation, 30 min): 148 ng/mL; rat serum concentration at 180 min ([12]; oral administration of 20 mg/kg as a DMSO formulation, 180 min): 44 ng/mL; rat serum concentration at 30 min ([12]; oral administration of 20 mg/kg in PEG400, 30 min): 475 ng/mL; rat serum concentration at 180 min ([12]; oral administration of 20 mg/kg in PEG400, 180 min): 63 ng/mL
CC(C)CN(C[C@@H](O)[C@H](Cc1ccccc1)NC(=O)OCc1cncs1)S(=O)(=O)c1ccc2nc(N)[nH]c2c1 [Compound 57]	0.30		0.30			0.31	0.34	2.0		0.37	0.32	5.7	5.7	Tox (pCC50) [11]: <4
CC(C)CN(C[C@@H](O)[C@H](Cc1ccccc1)NC(=O)OC1COC2OCCC12)S(=O)(=O)c1ccc2nc(NC(=O)NCCN(C)C)[nH]c2c1 (stereo partly drawn) [Compound 58]	1.1		1.0			1.0	0.32	1.1		1.0	0.37	5.6	5.6	Tox (pCC50) [11]: <4
[(1S,2R)-2-hydroxy-3-[[(2-methylbenzimidazol-5-yl)sulfonyl](2-methylpropyl)amino]-1-(phenylmethyl)propyl]-carbamic acid, [(3R,3aS,6aR)-hexahydrofuro[2,3-b]furan-3-yl]ester [Compound 24]	4.7		0.85			1.1	0.89	35		2.6	0.83	7.3	7.3	Tox (pCC50) [11, 15]: <4
